The target of data set [1] is T1, glucocorticoid receptor of rat hepatic cytoplasm (Rattus norvegicus, UniProt P06536).
T1 construct: centrifuge at 175000 g for 1 hour, and take out the supernatant liquid as reserve; from tissue; host or cells: liver cytosol (175000 g supernatant) of adrenalectomised female SD rats
T1 sequence (P06536 1-795): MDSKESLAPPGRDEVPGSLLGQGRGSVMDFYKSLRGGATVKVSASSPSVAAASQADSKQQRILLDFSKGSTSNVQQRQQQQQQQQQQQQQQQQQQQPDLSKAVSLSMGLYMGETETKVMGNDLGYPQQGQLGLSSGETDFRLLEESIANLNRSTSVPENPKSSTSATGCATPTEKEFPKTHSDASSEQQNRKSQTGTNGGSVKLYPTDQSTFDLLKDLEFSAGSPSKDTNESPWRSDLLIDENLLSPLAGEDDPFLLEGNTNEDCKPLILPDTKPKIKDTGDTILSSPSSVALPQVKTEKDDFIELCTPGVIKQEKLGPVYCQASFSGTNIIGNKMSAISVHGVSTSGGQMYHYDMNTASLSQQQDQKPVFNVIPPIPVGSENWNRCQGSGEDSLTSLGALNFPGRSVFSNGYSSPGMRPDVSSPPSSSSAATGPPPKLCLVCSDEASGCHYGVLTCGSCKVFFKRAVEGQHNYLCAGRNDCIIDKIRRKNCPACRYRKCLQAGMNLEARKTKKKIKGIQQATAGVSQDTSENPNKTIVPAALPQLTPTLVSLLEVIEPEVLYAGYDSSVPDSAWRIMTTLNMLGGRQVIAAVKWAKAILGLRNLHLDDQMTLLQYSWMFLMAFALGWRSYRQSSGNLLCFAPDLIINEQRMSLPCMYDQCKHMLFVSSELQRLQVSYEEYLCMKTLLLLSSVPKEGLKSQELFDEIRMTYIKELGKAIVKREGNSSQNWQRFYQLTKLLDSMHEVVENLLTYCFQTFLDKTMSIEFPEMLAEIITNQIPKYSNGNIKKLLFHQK
In words: Competition inhibition of [3H]-dexamethasone binding in rat hepatic cytoplasm. As to the method: Clean female SD rats, body weight 200-250 g, are fed with certain quantity of food and freely drink water. The temperature is controlled at about 24° C. and an illumination cycle are for 11 hours by day and 13 hours at night. All animals are observed for 1 week before experiment. Incisions are made on two sides below arch of ribs on dorsal position of rats to extirpate adrenal glands. After operation, the rats are fed with physiological saline to maintain water-electrolyte balance. On the third day after operation, animals are acutely executed. The liver is taken out immediately and placed in ice cold buffer solution; the blood should be washed off as much as possible. Take certain quantity of tissue, add buffer solution (1:4), cut the tissue with scissors, intermittently homogenize the tissue under low temperature, centrifuge at 175000 g for 1 hour, and take out the supernatant liquid as reserve. […] Then carry out the competition inhibition experiment.

The test system of data set [2] is thymus gland cells. In words: Anti-glucocorticoid activity test, [3H]-TdR incorporation in rat thymus gland cells. To be noted: for Antagonism against dexamethasone (incorporation rate of [3H]-TdR): n = 4. It is filed as cell-based. As to the method:
Clean female SD rats, body weight 200-250 g, are fed with certain quantity of food and freely drink water. The temperature is controlled at about 24° C. and an illumination cycle are for 11 hours by day and 13 hours at night. All animals are observed for 1 week before experiment. Rats are anesthetized with ethyl ether. Incisions are made on two sides below costal arch of ribs on dorsal position of rats to extirpate adrenal glands. The rats are fed with physiological saline after operation. On the seventh day, animals are acutely executed. Take out thymus gland to place in to HBSS buffer solution, wash twice, remove connective tissue, cut the tissue with scissors, lightly grind with homogenizer, filter with three layers of gauze, and centrifuge the filtrate for 5 min (500 rpm). Wash the precipitated cells twice with HBSS, re-suspend the cells in RPMI1640 culture medium for cell count and cell survival rate determination, and adjust cell concentration to 1×10^7/ml. Determination of anti-glucocorticoid activity: Add tested compound into culture medium, reaction concentration 6×10^−[…], and place in 37° C. incubator for 3 hours. Add thymus gland cells to make cell concentration to become 10^7/ml and incubate at 37° C. for 3 hours. Add 1 μCi of label substance, mix, and incubate for 1 hour. Add 100 μl of ice cold 5% trichloroacetic acid to end the reaction. Place the test tube on ice and wash twice with 2 ml of ice cold 5% trichloroacetic acid and centrifuge twice, 500 rpm×5 min, Add 0.5 ml of 1N NaOH to dissolve the precipitated cells, pipet out the liquid, dry the residue with cotton stick, place into same scintillation bottle, and determine the radioactivity by liquid scintillation counter.
Calculate the incorporation rate of [^3H]-TdR:
In which: T=[^3H]-TdR count without presence of compound, Td=count with presence of compound, and NSB=non-specific adsorption.
Inhibition rate=100%−incorporation rate

A short description of data set [3]: Cytotoxicity in MT-4 cell culture by MTT staining method. The class given is cell-based, human. The conditions noted are these: human, MT-4 cells infected with HIV-1 IIIB; MT-4 cell culture, MTT staining; read-out: Cytotoxicity TC50, MTT. As to the method:
(§1) Set virus TCID50 determination group and cell control group. Each concentration is duplicated in two pore. Incubate under 37° C., 5% CO2 and saturated humidity in an incubator. Add MTT into each pore of cell culture plate pipetted supernatant liquid to stain, continue to incubate for 4 hours, add decolorizing liquid, determine OD value at 570 nm wavelength by enzyme-linked apparatus, and [NT]50 and TC0 as above. […] [formula]

The subject of data set [4] is MT-4 cells. The data set is described as above. It is filed as cell-based, human. As to the method: as §1
Setting [5] is: Rattus norvegicus, read-out: Residual inhibition rate of dexamethasone.

With `CC#C[C@]1(O)CC[C@H]2[C@@H]3CCC4=CC(=O)CCC4=C3[C@@H](c3ccc(N(C)C4CCCCC4)cc3)C[C@@]21C` [Cymipristone, 11β-[4-(N-methyl-N-cyclohexylamino)phenyl]-17α-(1-propynyl)-17β-hydroxyl-4,9-estradiene-3-one], the IC50 ratio in data set [1] (cymipristone : mifepristone) is 1.00. Besides, in data set [1] (dexamethasone : cymipristone : mifepristone), the RBA ratio turned out to be 5.6. Further, the “Relative binding activity RBA” value in data set [1] (dexamethasone as 100, mean ± SD, n = 4) is reported as 557.69 ± 65.23%. The half-inhibitory concentration (IC50) (as a rule, the concentration needed to halve the response being measured) in data set [1] (mean ± SD, n = 4) was 0.0026 µM. The inhibition – broadly, how much of the control response was suppressed – at 0.1 µM in data set [1] (tested compound 1 × 10^−7 mol/L, mean ± SD, n = 4, read-out: Inhibition rate on binding of [3H]-dexamethasone) came to 88.9 ± 9.01%. Further, in data set [1] (tested compound 2 × 10^−8 mol/L, mean ± SD, n = 4, read-out: Inhibition rate on binding of [3H]-dexamethasone), the inhibition at 0.02 µM was 75.6 ± 3.56%. Also, the inhibition at 0.004 µM in data set [1] (tested compound 4 × 10^−9 mol/L, mean ± SD, n = 4, read-out: Inhibition rate on binding of [3H]-dexamethasone) is 54.5 ± 4.24%. Also, in data set [1] (tested compound 5 × 10^−7 mol/L, mean ± SD, n = 4, read-out: Inhibition rate on binding of [3H]-dexamethasone), the inhibition at 0.5 µM stood at 95.4 ± 5.34%. Besides, the inhibition at 0.0008 µM in data set [1] (tested compound 8 × 10^−10 mol/L, mean ± SD, n = 4, read-out: Inhibition rate on binding of [3H]-dexamethasone) was determined as 31.2 ± 3.87%. Also, in data set [1] (tested compound 16 × 10^−10 mol/L, mean ± SD, n = 4, read-out: Inhibition rate on binding of [3H]-dexamethasone), the inhibition at 0.0016 µM amounted to 17.2 ± 6.76%. Further, the “Anti-glucocorticoid activity (in words)” value in data set [2] is “Result shows that cymipristone has anti-glucocorticoid activity”. Also, in data set [2] (setting [5]), the activity at 0.06 µM was 35.2 ± 2.4%. In addition, the activity at 0.2 µM in data set [2] (setting [5]) was determined as 57.7 ± 3.5%. The activity at 0.6 µM in data set [2] (setting [5]) worked out at 42.2 ± 1.9%. The activity at 2 µM in data set [2] (setting [5]) was 64.1 ± 5.6%. Besides, the “Antagonism against dexamethasone (incorporation rate of [3H]-TdR)” value in data set [2] (cymipristone 2 × 10^−6 mol/L with dexamethasone 6×10^−8 mol/L) stood at 63.6 ± 5.1%; in data set [2] (cymipristone 2 × 10^−7 mol/L with dexamethasone 6×10^−8 mol/L), 67.2 ± 2.9%; in data set [2] (cymipristone 6 × 10^−7 mol/L with dexamethasone 6×10^−8 mol/L), 76.0 ± 3.8%; in data set [2] (cymipristone 6 × 10^−8 mol/L with dexamethasone 6×10^−8 mol/L) it was 80.0 ± 4.3%. For the same compound, the CC50 at 96 h in data set [3] amounted to 60.9 µM. For the same compound, in data set [4] (MT-4 cell culture, MTT staining), the “Cytotoxicity TC50, MTT” value was found to be 30.26 µg/mL. The “Toxicity on cultured human T-lymphocyte MT-4 (in words)” value in data set [4] (conclusion) is “no significant toxicity”.

The values above are taken from patent US20090111781A1, “Use of Cymipristone Type Compounds in Aids Treatment” (SHANGHAI THREE-ALLIANCE BIOTECHNOLOGIES CO., LTD., priority 2005, published 2009).
